Assay results: patent US8828988B2 (Tetraphase Pharmaceuticals, Inc., priority 2009, dated 2014)
Values after ≈ are worked out from the molar mass of the structure shown.

Tests used:
Assay type in all cases: cell-based
[1] = test system: Acinetobacter baumannii AB110, ATCC 19606; test: MIC assay, AB110; settings: ATCC19606, Table 9, read-out: MIC A.baum AB110
[2] = test system: tet(M) and tet(S) strains of E. faecalis; test: MIC, CLSI methodology, recent clinical isolates (Example 21); settings: Enterococcus faecalis, read-out: MIC against tet(M) and tet(S) strains of E. faecalis
Protocol: (§1) The assays were run as follows.
(§2) The antibacterial activities of Compounds MIC values were determined according to CLSI methodology. Recent clinical isolates were obtained from Eurofins-Medinet. Antibiotics were obtained from standard commercial sources.

[3] = test system: tet(K) strains of S. aureus; test: as above; settings: Staphylococcus aureus, read-out: MIC against tet(K) strains of S. aureus
Protocol: as §1, §2

[4] = test system: tet(M) strains of S. aureus; test: as above; settings: Staphylococcus aureus, read-out: MIC against tet(M) strains of S. aureus
Protocol: as §1, §2

[5] = test system: tet(M) strains of S. pneumoniae; test: as above; settings: Streptococcus pneumoniae, read-out: MIC against tet(M) strains of S. pneumoniae
Protocol: as §1, §2

[6] = test system: Enterobacter cloacae EC108, ATCC 13047; test: MIC assay, EC108; settings: ATCC13047, Table 9, read-out: MIC Enterobacter cloaceae ATCC 13047
[7] = test system: Pseudomonas aeruginosa PA111, ATCC 27853; test: MIC assay, PA111; settings: ATCC27853, Table 9, read-out: MIC P. aeruginosa ATCC 27853

With CN(C)CC(C)(C)CNc1nc(Cl)c2c(c1O)C(=O)C1=C(O)[C@]3(O)C(=O)C(C(N)=O)=C(O)[C@@H](N(C)C)[C@@H]3C[C@@H]1C2 [Compound 151] the MIC [1] was 2 µg/mL (≈ 3.46 µM), the MIC [2] was at most 4 µg/mL and the MIC [3] was at most 1 µg/mL. The MIC [4] was at most 8 µg/mL, the MIC [5] was at most 0.25 µg/mL and the MIC [6] was 2 µg/mL (≈ 3.46 µM). The MIC [7] was 32 µg/mL (≈ 55.4 µM).
